Consider three compounds from PMC12066977, “Alkyl Tail Variation on Chalcone‐Based Quaternary Pyridinium Salts as Rule‐of‐Thumb for Antimicrobial Activity” (Archiv Der Pharmazie, 2025).

Read-outs that look alike come from different tables or passages of the source.

For one data set, the system named is Leishmania donovani. The arrangement: method as in PMID 30669643, PMID 29758517. The following applies: lead compound 1, previously reported; read-out: IC50 against Leishmania donovani; cited from earlier work.
The test system of data set [1] is C. albicans ATCC 10231. The following applies: lead compound 1, previously reported; read-out: IC50 [95% confidence interval] Candida albicans; cited from earlier work.
The subject of another data set is S. aureus ATCC 25923. Kind of data set: Broth microdilution antimicrobial assay (MIC, IC50). The format is cell-based. The conditions noted are these: Staphylococcus aureus; for IC50: ATCC25923, 50% growth inhibition, 24 h, read-out: IC50 [95% confidence interval] Staphylococcus aureus; for MIC: ATCC25923, 24 h, broth microdilution, 37°C. On the procedure: (§1) Reference strains of Staphylococcus aureus (ATCC 25923), Escherichia coli (ATCC 25922), and Candida albicans (ATCC 10231) were used in this study as microbial models. These strains were purchased from the American Type Culture Collection (ATCC); bacterial cultures were routinely grown on 5% blood agar plate, while fungal cultures on Sabouraud Dextrose Agar (Biolife […]., Milan, Italy). […] In short, microbial inocula were prepared at 0.5 McFarland in PBS and, subsequently, bacterial suspensions were diluted 1:200 in Mueller-Hinton broth (Sigma-Aldrich, St. Louis, MO, USA), while fungal inoculum was diluted 1:20 in RPMI-1640 medium (Gibco®, ThermoFisher Scientific Inc., Waltham, MA, USA), containing glucose 2%, 0.3% levo-glutamine buffered to pH 7.0 with 0.165 M 3-(N-morpholino) propanesulfonic acid (MOPS). A total of 100 μL of these microbial suspensions was introduced into a 96-well microplate and incubated with 100 μL of the compounds, two-fold serially diluted in the range of 100-0.19 μM. Positive controls (microbial suspensions in regular media), negative controls (only compounds), and solvent controls (microbial suspensions incubated with DMSO dilutions) were included in the tests. The plate was incubated at 37°C for 24 h, and subsequently the optical density at 630 nm (OD630nm) was spectrophotometrically measured. Experiments were carried out in triplicate in three biological replicates. […] Statistical analysis was carried out by using GraphPad Prism version 9.4.1 for Windows (GraphPad Software, San Diego, California USA, www.graphpad.com). ^a MIC (Minimum Inhibitory Concentration) were determined in vitro by means of a standardized microdilution assay, in compliance with the Clinical and laboratory Standard Institute (CLSI) guidelines (30). Microbial suspensions were prepared at 0.5 McFarland in PBS, then diluted in the media and transferred in a 96 micro-well plate together with the serially 2-fold dilutions of the compounds. After 24h of incubation at 37°C, microbial growths were evaluated by measuring the Optical Density at 600 nm, then percentage values were obtained as relative to the positive controls (microbial suspensions in regular media).

Another data set has as its system E. coli ATCC 25922. The description is as above. Format: cell-based. The following applies: Escherichia coli, 24 h; for MIC: ATCC25922, broth microdilution, 37°C. On the procedure: as §1
The test system of the next data set is S. aureus biofilm. Briefly: Inhibition of biofilm formation (crystal violet staining). The format is cell-based. The conditions noted are these: Staphylococcus aureus, 24 h, CV staining, read-out: inhibition of S. aureus biofilm production. On the procedure: (§2) The ability of some selected compounds to inhibit biofilm formation was assessed by established protocols with minor modifications. In short, exponential cultures of S. aureus, E. coli, and C. albicans grown in Tryptic Soy broth (TSB, Sigma‐Aldrich, St. Louis, MO, USA) were adjusted to a final density of 10^5 CFU/mL. Aliquots of 100 µL of the microbial cultures were transferred to a 96‐well flat‐bottom polystyrene microplate, and then incubated at 37°C for 90 min to promote bacterial adhesion. Thereafter, wells were slowly rinsed with PBS to remove nonattached cells, and 100 µL of TSB supplemented with 1% glucose containing the twofold serial dilutions of the compounds was added. After incubation at 37°C for 24 h, the free‐floating cells were removed, and the biofilms were carefully washed with PBS. The biomass was quantified by a standardized crystal violet (CV) staining. Briefly, 100 µL of CV solution (0.1% in water) was added to each well containing a completely air‐dried biofilm, and incubated for 30 min at 37°C. […] Finally, the colored supernatants were transferred to a new microplate, and the OD550nm was measured. The percentage inhibition of biofilm formation in the different experimental conditions was calculated relative to the biofilm mass formed in the absence of compounds (positive control).

For a further data set, the system named is E. coli biofilm. Described as above. The format is cell-based. The following applies: Escherichia coli, 24 h, CV staining, read-out: inhibition of E. coli biofilm production. On the procedure: as §2
Data set [2] in a line: Cell viability and proliferation assay (WST8/CCK-8). Format: cell-based. The conditions noted are these: African green monkey, Vero cells (ATCC CCL-81), 48 h treatment, CCK-8; read-out: CC50 [95% CI] Vero cells. On the procedure: (§3) Vero cell line (ATCC CCL‐81) was selected as a model system to investigate the overall effect of chalcones on non‐malignant mammalian cells. […] For experiments, cells were seeded into 96‐well plates at 10^4 cells/well and incubated at 37°C for 24 h. Following washes with PBS, the cell monolayer was incubated with 100 µL of medium containing the twofold serial dilutions of the compounds. Both untreated cells and cells incubated with medium containing solvent dilutions were included in each experiment as controls. The cell viability was assessed by a WST8‐based assay according to the manufacturer's instructions (CCK‐8, Cell Counting Kit‐8, Dojindo Molecular Technologies, Rockville, MD, USA). After 48 h of incubation, culture medium was removed from each well, the monolayer was washed with PBS, and 100 µL of fresh medium containing 10 µL of CCK‐8 solution was added. Following a 2 h incubation at 37°C, the OD450nm was read, and data were expressed as the percentage of cell viability relative to the untreated controls. The CC50 was obtained on the corresponding dose–response curves generated as previously reported for IC50 values. Experiments were carried out in triplicate in three biological replicates.
A general note: Tetrazolium assays rely on reduction of a dye to a coloured formazan, in cell work by metabolically active cells.

The subject of data set [3] is human red blood cells (hRBCs). Kind of data set: Hemolytic activity assay. Format: cell-based. The conditions noted are these: 25 µM, 90 min, 37°C. On the procedure:
The hemolytic activity of some selected compounds was evaluated as the amount of hemoglobin released by the disruption of human red blood cells (hRBCs). For the experiments, fresh hRBCs were collected by centrifugation at 1500g for 10 min, washed three times with PBS, and resuspended to a final concentration of 4% w/v hRBCs in PBS. Then, 100 µL of hRBCs suspension and an equal volume of the twofold dilutions of the antimicrobial peptides were mixed in a 96‐well plate and incubated for 90 min at 37°C. After centrifugation at 1000g for 5 min, the supernatants were transferred into a clear 96‐well plate, and OD405nm was read. Untreated hRBCs (incubated with PBS) and hRBCs incubated with 1% Triton X‐100 were employed as negative and positive controls, respectively. The hemolysis percentage was calculated as [OD405nm (sample) − OD4_05nm (negative control)]/[OD405nm (positive control) − OD405nm (negative control)] × 100. Minimal hemolytic concentrations (MHCs) were defined as the compound concentration causing 10% hemolysis. Three independent experiments were performed in triplicate.

The subject of data set [4] is C. albicans ATCC 10231. Briefly: Broth microdilution antimicrobial assay (MIC, IC50). Format: cell-based. The conditions noted are these: Candida albicans, 24 h; for MIC: ATCC10231, broth microdilution, 37°C. On the procedure: as §1
On the technique in general: In broth dilution the organism is exposed to a series of concentrations in liquid medium.

Another data set relates to Vero cells (ATCC CCL-81). Briefly: Cell viability and proliferation assay (WST8/CCK-8). Format: cell-based. The conditions noted are these: 48 h treatment, CCK-8; read-out: CC50 [95% CI] Vero cells. On the procedure:
as §3

In data set [5] the test system is S. aureus ATCC 25923, E. coli ATCC 25922, C. albicans ATCC 10231. Kind of data set: Broth microdilution antimicrobial assay, statements pooled over the three strains. Format: cell-based. The conditions noted are these: stated for S. aureus, E. coli and C. albicans together; read-out: MIC toward the three selected strains. On the procedure: The antimicrobial activity of the compounds was assessed by determining the Minimum Inhibitory Concentration (MIC) by a well‐established broth microdilution procedure in microtiter plates and in compliance with the Clinical and Laboratory Standards Institute (CLSI) guidelines.
In short, microbial inocula were prepared at 0.5 McFarland in PBS and, subsequently, bacterial suspensions were diluted 1:200 in Mueller–Hinton broth (Sigma‐Aldrich, St. Louis, MO, USA), while fungal inoculum was diluted 1:20 in RPMI‐1640 medium (Gibco®, ThermoFisher Scientific Inc., Waltham, MA, USA), containing glucose 2%, 0.3% levo‐glutamine buffered to pH 7.0 with 0.165 M 3‐(N‐morpholino) propanesulfonic acid (MOPS). A total of 100 µL of these microbial suspensions was introduced into a 96‐well microplate and incubated with 100 µL of the compounds, two‐fold serially diluted in the range of 100–0.19 µM. Positive controls (microbial suspensions in regular media), negative controls (only compounds), and solvent controls (microbial suspensions incubated with DMSO dilutions) were included in the tests. The plate was incubated at 37°C for 24 h, and subsequently the optical density at 630 nm (OD630nm) was spectrophotometrically measured. Experiments were carried out in triplicate in three biological replicates. […]

On to `C#CCOc1ccc(C(=O)/C=C/c2cccnc2)c(OCC#C)c1` [Compound 1], for which the IC50 with Leishmania donovani is 4 µM; in the data set on C. albicans ATCC 10231 [1], 43.8 µM; with S. aureus ATCC 25923, 47.6 µM. In the data set on E. coli ATCC 25922, this compound displayed an MIC above 100 µM.
In the case of `C#CCOc1ccc(C(=O)/C=C/c2ccc[n+](CCCCCCCCCC)c2)c(OCC#C)c1.[Br-]` [Compound 4, (E)‐3‐{3‐[2,4‐Bis(prop‐2‐yn‐1‐yloxy)phenyl]‐3‐oxoprop‐1‐en‐1‐yl}‐1‐decylpyridin‐1‐ium bromide], the inhibition at 25 µM with S. aureus biofilm and in the data set on E. coli biofilm was above 90% in each case. Also, in data set [2], the CC50 at 48 h turned out to be 12.8 µM. Moreover, in data set [3], the hemolytic activity is recorded as 30.0%. For the same compound, the concentration for half-maximal inhibition (IC50) in the data set on S. aureus ATCC 25923 is 0.84 µM; in the data set with E. coli ATCC 25922 (ATCC25922, 50% growth inhibition, read-out: IC50 [95% confidence interval] Escherichia coli), 4.48 µM; with C. albicans ATCC 10231 [4] (ATCC10231, 50% growth inhibition, read-out: IC50 [95% confidence interval] Candida albicans), 4.28 µM. The minimum inhibitory concentration (MIC) against S. aureus ATCC 25923 was 1.56 µM; in the data set on E. coli ATCC 25922, 6.25 µM; with C. albicans ATCC 10231 [4], 6.25 µM.
For `C#CCOc1ccc(C(=O)/C=C/c2cccnc2)c(OCC#C)c1` [Compound 9, (E)‐3‐{3‐[2,4‐Bis(prop‐2‐yn‐1‐yloxy)phenyl]‐3‐oxoprop‐1‐en‐1‐yl}pyridin‐1‐ium bromide], in the data set with Vero cells (ATCC CCL-81), the cytotoxic concentration (CC50) is 6.2 µM. In addition, the figures for the minimum inhibitory concentration (MIC) (in data set [5]; in the data set with S. aureus ATCC 25923; in the data set on C. albicans ATCC 10231 [4]) were at least 50 µM, above 100 µM and above 100 µM, respectively.

As a reminder, the IC50 is the concentration that inhibits the measured activity by half. Usually MIC stands for the smallest concentration in the dilution series that meets the test's criterion for growth inhibition. Broadly, the inhibition is the change of the read-out against control, counted positive when it falls. One may read the CC50 as the concentration giving 50% cytotoxicity.
